{
  "source": "patent US11564912B2",
  "about": "“Methods for treating irritable bowel syndrome (IBS)” (Salix Pharmaceuticals, Inc., priority 2008, dated 2023)",
  "tested_on": "subjects with dIBS",
  "assay": "Study of rifaximin BID in subjects with dIBS: adequate relief of IBS symptoms and bloating",
  "type": "in vivo, human",
  "details": "for Percentage of Subjects with Number of Weeks with Adequate Relief of Bloating Symptoms / Percentage of Subjects with Number of Weeks with Adequate Relief of IBS Symptoms: RFX 550 mg BID, N = 191, ITT",
  "protocol": "This example relates to a study of rifaximin in subjects with dIBS. […] There were two measures of efficacy assessed. Subjects were questioned on the relief of overall IBS symptoms and bloating. […] The analyses defined success as a “yes” response to questions regarding adequate relief.\nAll subpopulations in the study responded to therapy. Baseline severity was determined using 7-point Lickert scales during screening for Abdominal Pain/Discomfort and Bloating, and the number, type (normal, hard, loose) and urgency of bowel movements.\nDuration of effect was assessed in a follow-up period. Subjects that responded in the 4 week treatment period were followed for an additional 3 months.\nThe effect of treatment on the percentage of subjects who reported adequate relief of IBS and bloating symptoms for at least two of the final three weeks during the treatment phase (Weeks 1 to 4) is shown in Tables 3-5 and FIGS. 4-6 below.\nTwo measures of efficacy were assessed independently. The first was the proportion of subjects who provided a ‘yes’ response to the weekly SGA question: “In the past 7 days, have you had adequate relief of your IBS symptoms? (yes/no)”. The second endpoint was the proportion of subjects who provide a ‘yes’ response to the weekly individual symptom question: “In the past 7 days, have you had adequate relief of your symptom of bloating? (yes/no)”. Durability was based on the proportion of subjects that had adequate relief over the entire treatment phase.\nIt is reported herein that the severity of baseline symptoms of abdominal pain and bloating influenced the response to rifaximin treatment. The co-primary endpoints in this analysis assessed weekly yes/no responses to questions regarding adequate relief of global IBS symptoms and IBS-associated bloating. Severity of baseline IBS symptoms was evaluated as a potential confounder of clinical response and was categorized as mild/moderate or severe based on a mean score of ≤4 vs. >4 (on a 7-point scale) for bloating and abdominal pain.\nThe Weekly yes/no responses to questions regarding adequate relief of global IBS symptoms and IBS-associated bloating were assessed. Clinical response was defined as adequate relief for 2 of the final 3 treatment weeks (wk 2, 3, or 4). Severity of baseline IBS symptoms was evaluated as a potential confounder of clinical response and was categorized as mild/moderate or severe based on a mean score of ≤4 versus >4 (on a 7-point scale (0=not bothersome; 6=very bothersome)) for bloating and abdominal pain.",
  "data": [
    {"substance": "(2S,16Z,18E,20S,21S,22R, 23R,24R,25S,26S,27S,28E)-5,6,21,23,25 Pentahydroxy-27-methoxy -2,4,11,16,20,22,24,26-octamethyl-2,7-(epoxypentadeca-(1,11,13)trienimino)benzofuro (4,5-e) pyrido(1,2,-a) benzimidazole-1,15(2H)-dione,25-acetate [Rifaximin]", "values": [
      {"measurement": "Percentage of Subjects with Number of Weeks with Adequate Relief of Bloating Symptoms", "setting": "0 weeks", "value": 35, "unit": "%"},
      {"measurement": "Percentage of Subjects with Number of Weeks with Adequate Relief of IBS Symptoms", "setting": "0 weeks", "value": 33, "unit": "%"},
      {"measurement": "Adequate relief of IBS related symptoms (SGA) and IBS-related bloating (IBS-B)", "setting": "550 mg BID for 2 weeks", "value": "statistically significant relief"},
      {"measurement": "Percentage of Subjects with Number of Weeks with Adequate Relief of Bloating Symptoms", "setting": "1 week", "value": 14, "unit": "%"},
      {"measurement": "Percentage of Subjects with Number of Weeks with Adequate Relief of IBS Symptoms", "setting": "1 week", "value": 11, "unit": "%"},
      {"measurement": "Percentage of Subjects with Number of Weeks with Adequate Relief of Bloating Symptoms", "setting": "2 weeks", "value": 15, "unit": "%"},
      {"measurement": "Percentage of Subjects with Number of Weeks with Adequate Relief of IBS Symptoms", "setting": "2 weeks", "value": 15, "unit": "%"},
      {"measurement": "Percentage of Subjects with Number of Weeks with Adequate Relief of Bloating Symptoms", "setting": "3 weeks", "value": 20, "unit": "%"},
      {"measurement": "Percentage of Subjects with Number of Weeks with Adequate Relief of IBS Symptoms", "setting": "3 weeks", "value": 23, "unit": "%"},
      {"measurement": "Percentage of Subjects with Number of Weeks with Adequate Relief of Bloating Symptoms", "setting": "4 weeks", "value": 14, "unit": "%"},
      {"measurement": "Percentage of Subjects with Number of Weeks with Adequate Relief of IBS Symptoms", "setting": "4 weeks", "value": 16, "unit": "%"},
      {"measurement": "Treatment effect (Bloating)", "setting": "Age <65", "value": 6.8, "unit": "%"},
      {"measurement": "Treatment effect (IBS Sx)", "setting": "Age <65", "value": 6.9, "unit": "%"},
      {"measurement": "Treatment effect (Bloating)", "setting": "Age ≥65", "value": 3.2, "unit": "%"},
      {"measurement": "Treatment effect (IBS Sx)", "setting": "Age ≥65", "value": 19.1, "unit": "%"},
      {"measurement": "Treatment effect (Bloating)", "setting": "Diabetes History: N", "value": 7.4, "unit": "%"},
      {"measurement": "Treatment effect (IBS Sx)", "setting": "Diabetes History: N", "value": 9.5, "unit": "%"},
      {"measurement": "Treatment effect (Bloating)", "setting": "Diabetes History: Y", "value": "−5.6", "unit": "%"},
      {"measurement": "Treatment effect (IBS Sx)", "setting": "Diabetes History: Y", "value": "−12.7", "unit": "%"},
      {"measurement": "Treatment effect (Bloating)", "setting": "Disease Duration: 10-20 y", "value": 11.7, "unit": "%"},
      {"measurement": "Treatment effect (IBS Sx)", "setting": "Disease Duration: 10-20 y", "value": 20.1, "unit": "%"},
      {"measurement": "Treatment effect (Bloating)", "setting": "Disease Duration: >20 y", "value": 35.1, "unit": "%"},
      {"measurement": "Treatment effect (IBS Sx)", "setting": "Disease Duration: >20 y", "value": 46.6, "unit": "%"},
      {"measurement": "Treatment effect (Bloating)", "setting": "Disease Duration: ≤10 y", "value": 2.8, "unit": "%"},
      {"measurement": "Treatment effect (IBS Sx)", "setting": "Disease Duration: ≤10 y", "value": 1.8, "unit": "%"},
      {"measurement": "Adequate Relief of Bloating at the End of the Treatment Phase: Failure", "setting": "Female, RFX 275 2 w (N = 95)", "value": "52 (64.2%) n (%)"},
      {"measurement": "Adequate Relief of Bloating at the End of the Treatment Phase: Success", "setting": "Female, RFX 275 2 w (N = 95)", "value": "29 (35.8%) n (%)"},
      {"measurement": "Adequate Relief of IBS Symptoms at the End of the Treatment Phase: Failure", "setting": "Female, RFX 275 2 w (N = 95)", "value": "46 (56.8%) n (%)"},
      {"measurement": "Adequate Relief of IBS Symptoms at the End of the Treatment Phase: Success", "setting": "Female, RFX 275 2 w (N = 95)", "value": "35 (43.2%) n (%)"},
      {"measurement": "Adequate Relief of Bloating at the End of the Treatment Phase: Failure", "setting": "Female, RFX 550 2 w (N = 99)", "value": "45 (61.6%) n (%)"},
      {"measurement": "Adequate Relief of Bloating at the End of the Treatment Phase: Success", "setting": "Female, RFX 550 2 w (N = 99)", "value": "28 (38.4%) n (%)"},
      {"measurement": "Adequate Relief of IBS Symptoms at the End of the Treatment Phase: Failure", "setting": "Female, RFX 550 2 w (N = 99)", "value": "44 (60.3%) n (%)"},
      {"measurement": "Adequate Relief of IBS Symptoms at the End of the Treatment Phase: Success", "setting": "Female, RFX 550 2 w (N = 99)", "value": "29 (39.7%) n (%)"},
      {"measurement": "Adequate Relief of Bloating at the End of the Treatment Phase: Failure", "setting": "Female, RFX 550 2 w (N = 191)", "value": "74 (54.0%) n (%)"},
      {"measurement": "Adequate Relief of Bloating at the End of the Treatment Phase: Success", "setting": "Female, RFX 550 2 w (N = 191)", "value": "63 (46.0%) n (%)"},
      {"measurement": "Adequate Relief of IBS Symptoms at the End of the Treatment Phase: Failure", "setting": "Female, RFX 550 2 w (N = 191)", "value": "66 (48.2%) n (%)"},
      {"measurement": "Adequate Relief of IBS Symptoms at the End of the Treatment Phase: Success", "setting": "Female, RFX 550 2 w (N = 191)", "value": "71 (51.8%) n (%)"},
      {"measurement": "odds ratio, Adequate Relief of Bloating at the End of the Treatment Phase", "setting": "Female, RFX 550 2 w vs. PBO", "value": "Comparison of RFX 550 2 w vs. PBO p-value: 0.5366, odds ratio: 1.166 (0.716, 1.898)"},
      {"measurement": "odds ratio, Adequate Relief of IBS Symptoms at the End of the Treatment Phase", "setting": "Female, RFX 550 2 w vs. PBO", "value": "Comparison of RFX 550 2 w vs. PBO p-value: 0.7608, odds ratio: 1.078 (0.665, 1.747)"},
      {"measurement": "Adequate Relief of Bloating at the End of the Treatment Phase: Failure", "setting": "Female, RFX 550 4 w (N = 98)", "value": "44 (57.9%) n (%)"},
      {"measurement": "Adequate Relief of Bloating at the End of the Treatment Phase: Success", "setting": "Female, RFX 550 4 w (N = 98)", "value": "32 (42.1%) n (%)"},
      {"measurement": "Adequate Relief of IBS Symptoms at the End of the Treatment Phase: Failure", "setting": "Female, RFX 550 4 w (N = 98)", "value": "42 (55.3%) n (%)"},
      {"measurement": "Adequate Relief of IBS Symptoms at the End of the Treatment Phase: Success", "setting": "Female, RFX 550 4 w (N = 98)", "value": "34 (44.7%) n (%)"},
      {"measurement": "Treatment effect (Bloating)", "setting": "Gender: F", "value": 3.9, "unit": "%"},
      {"measurement": "Treatment effect (IBS Sx)", "setting": "Gender: F", "value": 3.5, "unit": "%"},
      {"measurement": "Treatment effect (Bloating)", "setting": "Gender: M", "value": 13.6, "unit": "%"},
      {"measurement": "Treatment effect (IBS Sx)", "setting": "Gender: M", "value": 21, "unit": "%"},
      {"measurement": "Adequate Relief of Bloating at the End of the Treatment Phase: Failure", "setting": "Male, RFX 275 2 w (N = 95)", "value": "8 (57.1%) n (%)"},
      {"measurement": "Adequate Relief of Bloating at the End of the Treatment Phase: Success", "setting": "Male, RFX 275 2 w (N = 95)", "value": "6 (42.9%) n (%)"},
      {"measurement": "Adequate Relief of IBS Symptoms at the End of the Treatment Phase: Failure", "setting": "Male, RFX 275 2 w (N = 95)", "value": "9 (64.3%) n (%)"},
      {"measurement": "Adequate Relief of IBS Symptoms at the End of the Treatment Phase: Success", "setting": "Male, RFX 275 2 w (N = 95)", "value": "5 (35.7%) n (%)"},
      {"measurement": "Adequate Relief of Bloating at the End of the Treatment Phase: Failure", "setting": "Male, RFX 550 2 w (N = 99)", "value": "16 (61.5%) n (%)"},
      {"measurement": "Adequate Relief of Bloating at the End of the Treatment Phase: Success", "setting": "Male, RFX 550 2 w (N = 99)", "value": "10 (38.5%) n (%)"},
      {"measurement": "Adequate Relief of IBS Symptoms at the End of the Treatment Phase: Failure", "setting": "Male, RFX 550 2 w (N = 99)", "value": "14 (53.8%) n (%)"},
      {"measurement": "Adequate Relief of IBS Symptoms at the End of the Treatment Phase: Success", "setting": "Male, RFX 550 2 w (N = 99)", "value": "12 (46.2%) n (%)"},
      {"measurement": "Adequate Relief of Bloating at the End of the Treatment Phase: Failure", "setting": "Male, RFX 550 2 w (N = 191)", "value": "29 (53.7%) n (%)"},
      {"measurement": "Adequate Relief of Bloating at the End of the Treatment Phase: Success", "setting": "Male, RFX 550 2 w (N = 191)", "value": "25 (46.3%) n (%)"},
      {"measurement": "Adequate Relief of IBS Symptoms at the End of the Treatment Phase: Failure", "setting": "Male, RFX 550 2 w (N = 191)", "value": "25 (46.3%) n (%)"}
    ]}
  ]
}
